≈ marks a conversion by molar mass, not a printed value. Where two headings read alike, the source gives them in different places.
How the values were obtained:
C. glabrata = experiment: Checkerboard FIC assay in combination with fluconazole (MIC alone and in combination, FICI); assay type: cell-based, Candida glabrata; details: for FICI of combination resulting in fluconazole MIC of: 2 ug/mL / FICI of combination resulting in fluconazole MIC of: 4 ug/mL / FICI of combination resulting in fluconazole MIC of: 8 ug/mL: FICI calculated using a fluconazole MIC of 16 μg/mL; for FICI of combination resulting in fluconazole MIC of: 2 ug/mL (value in parenthesis) / FICI of combination resulting in fluconazole MIC of: 4 ug/mL (value in parenthesis) / FICI of combination resulting in fluconazole MIC of: 8 ug/mL (value in parenthesis): FICI using a fluconazole MIC of 128 μg/mL; for MIC: Nakaseomyces glabratus; for Multiple of compound MIC to synergize fluconazole MIC to 2 ug/mL / Multiple of compound MIC to synergize fluconazole MIC to 4 ug/mL / Multiple of compound MIC to synergize fluconazole MIC to 8 ug/mL: concentration in combination as multiple of the compound's MIC alone; for Multiple of compound MIC to synergize fluconazole MIC to 2 ug/mL: fluconazole MIC 2 ug/mL; for Multiple of compound MIC to synergize fluconazole MIC to 4 ug/mL: fluconazole MIC 4 ug/mL; for Multiple of compound MIC to synergize fluconazole MIC to 8 ug/mL: fluconazole MIC 8 ug/mL; for Concentration of Methylgene compound to synergize fluconazole MIC to 2 ug/mL / Concentration of Methylgene compound to synergize fluconazole MIC to 4 ug/mL / Concentration of Methylgene compound to synergize fluconazole MIC to 8 ug/mL: in combination with fluconazole; for Concentration of Methylgene compound to synergize fluconazole MIC to 2 ug/mL: fluconazole MIC lowered to 2 ug/mL; for Concentration of Methylgene compound to synergize fluconazole MIC to 4 ug/mL: fluconazole MIC lowered to 4 ug/mL; for Concentration of Methylgene compound to synergize fluconazole MIC to 8 ug/mL: fluconazole MIC lowered to 8 ug/mL
Procedure, shortened: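 C. glabrata was tested by CLSI broth microdilution checkerboard, crossing 2-fold dilutions of compound with 2-fold dilutions of fluconazole. The medium was RPMI with 0.165 M MOPS at pH 7.0, inoculated from a 0.5 McFarland suspension diluted 1:100, then incubated about 48 h at 35 °C. Single-agent MICs gave the FIC and FICI values.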

Candida parapsilosis = experiment: Minimal Inhibitory Concentration (MIC) assay, broth microdilution per CLSI; assay type: cell-based; details: Lodderomyces parapsilosis, read-out: Minimum Inhibitory Concentrations against Yeast Isolates, Candida parapsilosis;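 further: two read times 24 hr and 48 hr of incubation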
Procedure, shortened: (§1)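 CLSI broth microdilution in RPMI with 0.165 M MOPS, pH 7.0, inoculum from 0.5 McFarland suspension diluted 1:100; compounds in DMSO. Incubation at 35°C for about 24-48 hr; MIC is lowest concentration without visible growth, fluconazole at prominent decrease in growth.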

Candida albicans = experiment: as above; assay type: cell-based; details: Candida albicans, read-out: Minimum Inhibitory Concentrations against Yeast Isolates, Candida albicans;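 further: two read times 24 hr and 48 hr of incubation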
Procedure, shortened: as §1

Candida glabrata = experiment: as above; assay type: cell-based; details: Nakaseomyces glabratus, read-out: Minimum Inhibitory Concentrations against Yeast Isolates, Candida glabrata;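 further: two read times 24 hr and 48 hr of incubation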
Procedure, shortened: as §1

[1] = MIC of the example compound alone against C. glabrata in the checkerboard assay, approximately 48 hr, read-out: Methylgene MIC
[2] = test compound alone, C. glabrata, approx. 48 hr at 35° C., read-out: Compound MIC
[3] = 24 hr reading (first value of cell 24 hr/48 hr)
[4] = 48 hr reading (second value of cell 24 hr/48 hr)

SMILES | FICI of combination resulting in fluconazole MIC of: 2 ug/mL (C. glabrata; C. glabrata) | FICI of combination resulting in fluconazole MIC of: 4 ug/mL (C. glabrata; C. glabrata) | FICI of combination resulting in fluconazole MIC of: 8 ug/mL (C. glabrata; C. glabrata) | FICI of combination resulting in fluconazole MIC of: 2 ug/mL (value in parenthesis) (C. glabrata; C. glabrata) | FICI of combination resulting in fluconazole MIC of: 4 ug/mL (value in parenthesis) (C. glabrata; C. glabrata) | FICI of combination resulting in fluconazole MIC of: 8 ug/mL (value in parenthesis) (C. glabrata; C. glabrata) | MIC (C. glabrata; [1]) | MIC (C. glabrata; [2]) | Multiple of compound MIC to synergize fluconazole MIC to 2 ug/mL (C. glabrata) | Multiple of compound MIC to synergize fluconazole MIC to 4 ug/mL (C. glabrata) | Multiple of compound MIC to synergize fluconazole MIC to 8 ug/mL (C. glabrata) | Concentration of Methylgene compound to synergize fluconazole MIC to 2 ug/mL (C. glabrata; C. glabrata) | Concentration of Methylgene compound to synergize fluconazole MIC to 4 ug/mL (C. glabrata; C. glabrata) | Concentration of Methylgene compound to synergize fluconazole MIC to 8 ug/mL (C. glabrata; C. glabrata) | MIC (Candida parapsilosis; [3]) | MIC (Candida parapsilosis; [4]) | MIC (Candida albicans; [3]) | MIC (Candida albicans; [4]) | MIC (Candida glabrata; [3]) | MIC (Candida glabrata; [4])
O=C(Cc1ccc(CCCCc2ccc(OCCCN3CCOCC3)cc2)cc1)NO [Example 16, N-hydroxy-2-(4-(4-(4-(3-morpholinopropoxy)phenyl)butyl)phenyl)acetamide] | 0.375 | 0.500 | 0.625 | 0.266 | 0.281 | 0.188 | 2 µg/mL | 2 µg/mL | (¼x) | (¼x) | (⅛x) | 0.5 µg/mL | 0.5 µg/mL | 0.25 µg/mL | > 16 µg/mL | > 16 µg/mL | > 16 µg/mL | > 16 µg/mL | > 32 µg/mL | > 32 µg/mL
O=C(Cc1ccc(CCCCc2ccc(NS(=O)(=O)CCN3CCOCC3)cc2)cc1)NO [Example 51, N-hydroxy-2-(4-(4-(4-(2-morpholinoethylsulfona-mido)phenyl)butyl)phenyl)acetamide] | 0.313 | 0.250 | 0.375 | 0.266 | 0.156 | 0.188 | 16 µg/mL | 16 µg/mL | (¼x) | (⅛x) | (⅛x) | 4 µg/mL | 2 µg/mL | 2 µg/mL | > 64 µg/mL | > 64 µg/mL | > 64 µg/mL | > 64 µg/mL | 4 µg/mL (≈ 8.41 µM) | 16 µg/mL (≈ 33.6 µM)
O=C(Cc1ccc(CCCCc2cccc(NS(=O)(=O)CCN3CCOCC3)c2)cc1)NO [Example 53, N-hydroxy-2-(4-(4-(3-(2-morpholinoethylsulfona-mido)phenyl)butyl)phenyl)acetamide] | 0.313 | 0.250 | 0.375 | 0.266 | 0.156 | 0.188 | 16 µg/mL | 16 µg/mL | (¼x) | (⅛x) | (⅛x) | 4 µg/mL | 2 µg/mL | 2 µg/mL | > 64 µg/mL | > 64 µg/mL | > 64 µg/mL | > 64 µg/mL | 16 µg/mL (≈ 33.6 µM) | 32 µg/mL (≈ 67.3 µM)
COCCOCCOCC(=O)Nc1ccc(CCCCc2ccc(CC(=O)NO)cc2)cc1 [Example 35, N-hydroxy-2-(4-(4-(4-(2-(2-(2-methoxyethoxy)ethoxy)acetamido)phenyl)butyl)phenyl)acetamide] | 0.375 | 0.500 | 0.625 | 0.266 | 0.281 | 0.188 | 4 µg/mL | 4 µg/mL | (¼x) | (¼x) | (⅛x) | 1 µg/mL | 1 µg/mL | 0.5 µg/mL | 64 µg/mL (≈ 140 µM) | 64 µg/mL (≈ 140 µM) | 64 µg/mL (≈ 140 µM) | 64 µg/mL (≈ 140 µM) | 64 µg/mL (≈ 140 µM) | > 64 µg/mL
O=C(Cc1ccc(CCCCc2cccc(NC(=O)NCCN3CCOCC3)c2)cc1)NO [Example 50, N-hydroxy-2-(4-(4-(3-(3-(2-morpholinoethyl)urei-do)phenyl)butyl)phenyl)acetamide] | 0.313 | 0.250 | 0.375 | 0.266 | 0.156 | 0.188 | 16 µg/mL | 16 µg/mL | (¼x) | (⅛x) | (⅛x) | 4 µg/mL | 2 µg/mL | 2 µg/mL | > 64 µg/mL | > 64 µg/mL | > 64 µg/mL | > 64 µg/mL | 8 µg/mL (≈ 17.6 µM) | 16 µg/mL (≈ 35.2 µM)
CC(C(=O)NO)c1ccc(CCCCc2ccccc2)cc1 (stereo not drawn) [Example 55, N-hydroxy-2-(4-(4-phenylbutyl)phenyl)propanamide] | 0.303 | 0.365 | 0.370 | 0.256 | 0.271 | 0.183 | 0.5 µg/mL | 0.5 µg/mL | (¼x) | (¼x) | (⅛x) | 0.12 µg/mL | 0.12 µg/mL | 0.06 µg/mL | 0.5 µg/mL (≈ 1.68 µM) | 1 µg/mL (≈ 3.36 µM) | 2 µg/mL (≈ 6.72 µM) | 4 µg/mL (≈ 13.4 µM) | 0.25 µg/mL (≈ 0.841 µM) | 0.5 µg/mL (≈ 1.68 µM)
